From patent US20260174875A1 (Novo Nordisk A/S, priority 2023, published 2026)
Numbered stars: 1 amine (or outer) side, 2 acyl side, 3 side chain; on linkers, the order of the positions; unused ones are H or OH. Square brackets hold non-standard residues; d marks the D form. Side chains are listed from the residue outwards. * marks the point of attachment. C20 diacid = O=C(O)CCCCCCCCCCCCCCCCCCC(=O)*; C18 diacid = O=C(O)CCCCCCCCCCCCCCCCC(=O)*; γGlu = O=C(O)[C@H](CCC(=O)[*:2])N[*:1]; AEEA = NCCOCCOCC(=O)O; Aib = CC(C)(N)C(=O)O

Target: T1, human GLP-1 receptor (hGLP-1R) (Homo sapiens, UniProt P43220)
T1 construct: expressed in transfected cells
T1 sequence (P43220 24-463): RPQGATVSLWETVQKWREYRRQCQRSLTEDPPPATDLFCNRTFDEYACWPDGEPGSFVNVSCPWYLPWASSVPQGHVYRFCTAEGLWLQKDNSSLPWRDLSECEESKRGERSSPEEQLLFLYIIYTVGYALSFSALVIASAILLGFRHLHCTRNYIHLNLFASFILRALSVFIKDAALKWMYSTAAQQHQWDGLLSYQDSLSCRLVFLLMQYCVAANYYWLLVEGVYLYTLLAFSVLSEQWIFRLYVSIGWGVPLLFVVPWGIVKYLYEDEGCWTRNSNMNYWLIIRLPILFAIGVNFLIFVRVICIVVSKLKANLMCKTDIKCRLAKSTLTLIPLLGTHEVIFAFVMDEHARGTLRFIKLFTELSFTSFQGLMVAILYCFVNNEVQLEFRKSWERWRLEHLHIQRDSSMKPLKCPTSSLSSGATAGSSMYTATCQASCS
Test: GLP-1 receptor assay, method A (CRE-luciferase reporter, BHK cells)
Format: cell-based
Details: hGLP-1R Potency, 1% HSA, EC50, method A, in the presence of 1% HSA
Description: (§1) To assess how the activation of the receptors is potentially influenced by the presence of human serum albumin (HSA), the in vitro assays were performed in the absence of HSA and presence of 1% (w/v) HSA.
Cells at approximately 80-90% confluence were washed once in PBS (Gibco 14190-094) and loosened from the cell flasks with Versene (Gibco, 15040-033). […] Cells were aliquoted and stored at −180° C. until use.
(§2) The assay buffer consisted of DMEM without phenol red (Gibco, 11880-028) supplemented with 1× GlutaMAX (Gibco, 35050-038), 10 mM HEPES (Gibco, 15630-056), 1% (w/v) ovalbumin (Sigma, A5503) and 0.1% (v/v) Pluronic F-68 (Gibco, 24040-032) either with HSA or without HSA (Sigma, A9511).
Frozen stocks of hGLP-1R BHK CRE-Luc cells were thawed in a 37° C. water bath, washed once in PBS (Gibco 14190-094) and diluted to 1.5×10^6 (1.5E+6) cells/mL in assay buffer with or without 2% (w/v) HSA (Sigma, A9511). […] The assay plates were incubated for 3 hours at 37° C. in 5% CO2, left at room temperature for 5 minutes after which 100 μL steadylite Plus™ (PerkinElmer/Revvity, 6066759) was added to each well. Plates were sealed and incubated at room temperature with gentle shaking for 30 minutes while protected from light. Luminescence was detected on a luminescence plate reader e.g., a Synergy 2 (BioTek).

Substance | EC50 [nM]
Y[Aib]EGTFTSDYSILLEEQAAREFIEWLLAGGPSSGAGQAPGQAPGASHLSTAALARLSAELHK([AEEA-AEEA-γGlu-C18 diacid])LATLPRTETGSGSP-NH2 [Compound 114] | 0.126
Y[Aib]EGTFTSDYSILLEEQAAREFIEWLLAGGPSSGAGQAPGQAPGASHLSTAQTARLSAELHK([AEEA-AEEA-γGlu-C18 diacid])LATLPRTETGSGSP-NH2 [Compound 113] | 0.0575
Y[Aib]EGTFTSDYSILLEEQAAREFIEWLLAGGPSSGAGQAPGQAPGASHLSTAQTQRLSAELHQLK([AEEA-AEEA-γGlu-C18 diacid])TLPRTETGSGSP-NH2 [Compound 102] | 0.047
Y[Aib]EGTFTSDYSILLEEQAAREFIEWLLAGGPSSGAGQAPGQAPGASHLSTAQTQRLSAELHRLATLPK([AEEA-AEEA-γGlu-C20 diacid])TETGSGSP-NH2 [Compound 76] | 0.0636

Same assay, conditions: method A, absence of HSA; read-out: hGLP-1R Potency, no HSA, EC50

Substance | EC50 [nM]
Y[Aib]EGTFTSDYSILLEEQAAREFIEWLLAGGPSSGAGQAPGQAPGASHLSTAALARLSAELHK([AEEA-AEEA-γGlu-C18 diacid])LATLPRTETGSGSP-NH2 [Compound 114] | 0.0433
Y[Aib]EGTFTSDYSILLEEQAAREFIEWLLAGGPSSGAGQAPGQAPGASHLSTAQTARLSAELHK([AEEA-AEEA-γGlu-C18 diacid])LATLPRTETGSGSP-NH2 [Compound 113] | 0.0144
Y[Aib]EGTFTSDYSILLEEQAAREFIEWLLAGGPSSGAGQAPGQAPGASHLSTAQTQRLSAELHQLK([AEEA-AEEA-γGlu-C18 diacid])TLPRTETGSGSP-NH2 [Compound 102] | 0.011
Y[Aib]EGTFTSDYSILLEEQAAREFIEWLLAGGPSSGAGQAPGQAPGASHLSTAQTQRLSAELHRLATLPK([AEEA-AEEA-γGlu-C20 diacid])TETGSGSP-NH2 [Compound 76] | 0.0199

Target: T2, human GIP receptor (hGIPR) (Homo sapiens, UniProt P48546)
T2 construct: expressed in transfected cells
T2 sequence (P48546 22-466): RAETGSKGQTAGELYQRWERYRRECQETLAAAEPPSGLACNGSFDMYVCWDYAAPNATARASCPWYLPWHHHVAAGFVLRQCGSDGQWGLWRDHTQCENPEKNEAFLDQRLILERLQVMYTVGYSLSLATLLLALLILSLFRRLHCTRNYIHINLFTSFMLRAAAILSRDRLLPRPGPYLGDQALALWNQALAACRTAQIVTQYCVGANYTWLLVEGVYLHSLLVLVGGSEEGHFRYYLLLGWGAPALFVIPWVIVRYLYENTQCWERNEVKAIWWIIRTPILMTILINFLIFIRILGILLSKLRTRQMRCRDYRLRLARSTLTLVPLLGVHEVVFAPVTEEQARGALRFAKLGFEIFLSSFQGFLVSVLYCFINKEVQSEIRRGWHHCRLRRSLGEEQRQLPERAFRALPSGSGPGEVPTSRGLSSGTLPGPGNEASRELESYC
Test: GIP receptor assay, method A (CRE-luciferase reporter, BHK cells)
Format: cell-based
Details: hGIPR Potency, 1% HSA, EC50, method A, in the presence of 1% HSA
Description: To assess how the activation of the receptors is potentially influenced by the presence of human serum albumin (HSA), the in vitro assays were performed in the absence of HSA and presence of 1% (w/v) HSA. Unless stated otherwise the reference to the “GIP receptor assay as described in Example 4” throughout the specification shall refer to the described herein assay procedure method A (hGIPR assay) in the absence of HSA.
Activation of the human GIP receptor leads to increased intra-cellular concentrations of cyclic AMP (cAMP) and the consequent transcription activation from promoters containing multiple copies of the cAMP response element (CRE). It is thus possible to measure GIP receptor activity using a CRE-luciferase reporter gene introduced into Baby Hamster Kidney (BHK) cells co-expressing the human GIP receptor.
Cells at about 80-90% confluency were washed once with PBS (Gibco 14190-094) and detached from the cell flasks with Versene (Gibco, 15040-066). After centrifugation, the cells were counted, resuspended and diluted to approximately 1.5-3.0×10^6 (1.5E+6 to 3.0E+6) cells/mL in Recovery Cell Culture Freezing Medium (Gibco, 12648-010) and stored at −180° C. in suitable aliquots until use.
as §2
On the day before the assay hGIPR BHK Cre-Luc cells were thawed and plated out in 96 well Culture Plates (PerkinElmer/Revvity, 6005680) at 5.0×10^3 (5.0E+3) cells/well in growth medium as described above. The plates were then incubated for 21-23 hours at 37° C. with 5% CO2. On the day of the assay GLP-1-/GIP-/amylin-receptor tri-agonists or reference compounds were diluted in assay buffer using a 7-point, 10-fold titration plus a blank (absence of compound). Each compound was diluted and tested in duplicates in each experiment. In the plates containing the cells the growth medium was removed, and cells were washed twice with 100 μL PBS (Gibco 14190-094). 50 μL of the test compound dilutions were added to the plates containing cells preceded by 50 μL assay buffer with or without 2% (w/v) HSA (Sigma, A9511). The cell plates were incubated for 3 hours in a 5% CO2 incubator at 37° C. The plates were then transferred to room temperature followed by addition of 100 μL steadylite Plus™ (PerkinElmer/Revvity, 6066759). The plates were sealed and shaken for 30 minutes at room temperature while protected from light. Finally, luminescence (as an indicator of receptor activation) was measured on a Mithras reader (Berthold Technologies, DE). The EC50-values [pM] were calculated by non-linear curve fitting applying a four-parameter logistic model (Hill slope=“shared value for all datasets”) using GraphPad Prism (GraphPad Software, Boston, MA, USA).

Substance | EC50 [pM]
Y[Aib]EGTFTSDYSILLEEQAAREFIEWLLAGGPSSGAGQAPGQAPGASHLSTAALARLSAELHK([AEEA-AEEA-γGlu-C18 diacid])LATLPRTETGSGSP-NH2 [Compound 114] | 17.2
Y[Aib]EGTFTSDYSILLEEQAAREFIEWLLAGGPSSGAGQAPGQAPGASHLSTAQTARLSAELHK([AEEA-AEEA-γGlu-C18 diacid])LATLPRTETGSGSP-NH2 [Compound 113] | 8.96
Y[Aib]EGTFTSDYSILLEEQAAREFIEWLLAGGPSSGAGQAPGQAPGASHLSTAQTQRLSAELHQLK([AEEA-AEEA-γGlu-C18 diacid])TLPRTETGSGSP-NH2 [Compound 102] | 12.2
Y[Aib]EGTFTSDYSILLEEQAAREFIEWLLAGGPSSGAGQAPGQAPGASHLSTAQTQRLSAELHRLATLPK([AEEA-AEEA-γGlu-C20 diacid])TETGSGSP-NH2 [Compound 76] | 11.1

Same assay, conditions: method A, absence of HSA; read-out: hGIPR Potency, no HSA, EC50

Substance | EC50 [pM]
Y[Aib]EGTFTSDYSILLEEQAAREFIEWLLAGGPSSGAGQAPGQAPGASHLSTAALARLSAELHK([AEEA-AEEA-γGlu-C18 diacid])LATLPRTETGSGSP-NH2 [Compound 114] | 4.29
Y[Aib]EGTFTSDYSILLEEQAAREFIEWLLAGGPSSGAGQAPGQAPGASHLSTAQTARLSAELHK([AEEA-AEEA-γGlu-C18 diacid])LATLPRTETGSGSP-NH2 [Compound 113] | 2.02
Y[Aib]EGTFTSDYSILLEEQAAREFIEWLLAGGPSSGAGQAPGQAPGASHLSTAQTQRLSAELHQLK([AEEA-AEEA-γGlu-C18 diacid])TLPRTETGSGSP-NH2 [Compound 102] | 2.24
Y[Aib]EGTFTSDYSILLEEQAAREFIEWLLAGGPSSGAGQAPGQAPGASHLSTAQTQRLSAELHRLATLPK([AEEA-AEEA-γGlu-C20 diacid])TETGSGSP-NH2 [Compound 76] | 2.82

Target: T3, human amylin receptor (hAMYR3) (Homo sapiens, UniProt O60896+P30988)
T3 construct: host or cells: BHK cells (Hollex-1 line expressing hCTR(a) and CRE-Luc), further transfected with human RAMP3
T3 sequence (P30988 25-474): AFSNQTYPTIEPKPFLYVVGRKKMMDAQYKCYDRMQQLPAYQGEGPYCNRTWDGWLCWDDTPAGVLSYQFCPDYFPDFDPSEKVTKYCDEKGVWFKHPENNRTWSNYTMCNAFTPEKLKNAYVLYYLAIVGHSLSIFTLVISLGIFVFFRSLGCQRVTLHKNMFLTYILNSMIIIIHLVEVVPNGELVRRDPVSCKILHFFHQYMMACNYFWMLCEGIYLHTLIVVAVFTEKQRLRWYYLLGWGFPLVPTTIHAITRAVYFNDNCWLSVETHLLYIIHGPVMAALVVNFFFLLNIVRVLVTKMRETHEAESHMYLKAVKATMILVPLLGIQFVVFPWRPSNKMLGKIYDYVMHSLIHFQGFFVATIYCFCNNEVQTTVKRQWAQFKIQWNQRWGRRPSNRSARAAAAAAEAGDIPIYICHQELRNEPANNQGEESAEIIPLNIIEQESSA
T3 sequence (O60896 24-148): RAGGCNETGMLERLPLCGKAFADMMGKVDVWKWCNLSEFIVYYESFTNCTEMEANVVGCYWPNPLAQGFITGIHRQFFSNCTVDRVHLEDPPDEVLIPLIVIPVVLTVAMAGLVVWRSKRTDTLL
Test: Amylin receptor assay, method A (CRE-luciferase reporter, BHK cells)
Format: cell-based
Details: hAMYR3 Potency, 1% HSA, EC50, method A, in the presence of 1% HSA
Description: as §1
It is thus possible to measure hAMYR3 activity using a CRE-luciferase reporter gene introduced into Baby Hamster Kidney (BHK) cells co-expressing the hAMYR3.
The cell line was further transfected with human receptor modifying protein 3 (RAMP3) using standard methods.
After centrifugation, the cell pellet was resuspended and diluted to approximately 2.5-4.0×10^6 (2.5E+6 to 4.0E+6) cells/mL in Recovery™ Cell Culture Freezing Medium (Gibco, 12648-010). Cells were aliquoted and stored at −180° C. until use.
as §2, with “15630-056) and” for “15630-056),”, “either with or without” for “and”, “24040-032) and” for “24040-032)”, “with” for “with HSA”
The plate was incubated over night at 37° C. in 5% CO2. […] Luminescence was detected on a luminescence plate reader e.g., a Synergy 2 (BioTek).

Substance | EC50 [nM]
Y[Aib]EGTFTSDYSILLEEQAAREFIEWLLAGGPSSGAGQAPGQAPGASHLSTAALARLSAELHK([AEEA-AEEA-γGlu-C18 diacid])LATLPRTETGSGSP-NH2 [Compound 114] | 0.0452
Y[Aib]EGTFTSDYSILLEEQAAREFIEWLLAGGPSSGAGQAPGQAPGASHLSTAQTARLSAELHK([AEEA-AEEA-γGlu-C18 diacid])LATLPRTETGSGSP-NH2 [Compound 113] | 0.136
Y[Aib]EGTFTSDYSILLEEQAAREFIEWLLAGGPSSGAGQAPGQAPGASHLSTAQTQRLSAELHQLK([AEEA-AEEA-γGlu-C18 diacid])TLPRTETGSGSP-NH2 [Compound 102] | 0.134
Y[Aib]EGTFTSDYSILLEEQAAREFIEWLLAGGPSSGAGQAPGQAPGASHLSTAQTQRLSAELHRLATLPK([AEEA-AEEA-γGlu-C20 diacid])TETGSGSP-NH2 [Compound 76] | 0.43

Same assay, conditions: method A, absence of HSA; read-out: hAMYR3 Potency, no HSA, EC50

Substance | EC50 [nM]
Y[Aib]EGTFTSDYSILLEEQAAREFIEWLLAGGPSSGAGQAPGQAPGASHLSTAALARLSAELHK([AEEA-AEEA-γGlu-C18 diacid])LATLPRTETGSGSP-NH2 [Compound 114] | 0.00227
Y[Aib]EGTFTSDYSILLEEQAAREFIEWLLAGGPSSGAGQAPGQAPGASHLSTAQTARLSAELHK([AEEA-AEEA-γGlu-C18 diacid])LATLPRTETGSGSP-NH2 [Compound 113] | 0.00253
Y[Aib]EGTFTSDYSILLEEQAAREFIEWLLAGGPSSGAGQAPGQAPGASHLSTAQTQRLSAELHQLK([AEEA-AEEA-γGlu-C18 diacid])TLPRTETGSGSP-NH2 [Compound 102] | 0.00326
Y[Aib]EGTFTSDYSILLEEQAAREFIEWLLAGGPSSGAGQAPGQAPGASHLSTAQTQRLSAELHRLATLPK([AEEA-AEEA-γGlu-C20 diacid])TETGSGSP-NH2 [Compound 76] | 0.00311
